Data as given in US20190307820A1, “COMPOSITIONS AND METHODS OF USING STAT1/3 INHIBITORS WITH ONCOLYTIC HERPES VIRUS” (priority 2016, published 2019).

Tested on: CT26, LL2, U87, B16, 4T1 tumor cells
Assay: Cell survival (MTT) of tumor cell panel with nifuroxazide and/or virus
Format: cell-based
Conditions: nifuroxazide 0-100 μM
From the text: FIGS. 7A-7L show results of treatment of tumor cells with nifuroxazide and oHSV-1. FIG. 7A-7C show cell survival for tumor cells CT26, LL2 and U87 treated with nifuroxazide or HrR3 or KOS. FIG. 7D-7G show cell survival of tumor cells, U87, CT26, 4T1 and LL2, treated first with nifuroxazide and then HrR3 virus. FIG. 7H-7K show combination index (CI) values for tumor cells treated with varying doses of nifuroxazide or the viruses, HrR3 or KOS, or VG12TR, alone or in combination. FIG. 7L is a table presenting the dose reduction index for a combination of nifuroxazide and HrR3 virus.
In this example, the effect of nifuroxazide and oHSV-1 on tumor cells was evaluated. A variety of cancer cell types were treated with nifuroxazide (from 0-100 μM) or HrR3 virus at a MOI from 0 to 12.5 or KOS virus at a MOI from 1 to 12.5. Cell survival was measured.
Tumor cells were treated with nifuroxazide or medium. Following incubation, virus was added and further incubated for 72 (FIG. 7D) or 48 hrs (FIG. 7E-7G). Cytotoxicity was measured by an MTT assay. […]
If FIG. 7H-7K, cells were treated with varying doses of nifuroxazide or the indicated viruses (HrR3, KOS, or VG12TR) alone or in combination for 48 hrs (7J, 7K) or 72 hrs (7H) Cell viability was measured by a MTT assay and combination index (CI) values were calculated using Chour-Talalay analysis. […]

O=C(N/N=C/c1ccc([N+](=O)[O-])o1)c1ccc(O)cc1 [nifuroxazide, Benzoic acid, 4-hydroxy-, [(5-nitro-2-furanyl)metylene]hydrazide]
Cell survival: caused cell mortality in all cell lines at higher doses
